Measurements reported in patent US11214578B2, “Urea/carbamates FAAH MAGL or dual FAAH/MAGL inhibitors and uses thereof” (Northeastern University, priority 2014, dated 2022).

Experiments:
Assay type in all cases: biochemical
[1] = target: T1, Human FAAH (MBPΔTMhFAAH) (Homo sapiens, UniProt O00519); assay: Fluorescent assay protocol for hFAAH; conditions: human FAAH (MBP fusion, ΔTM), procedure as for rFAAH
T1 construct: made in house; host or cells: E. coli (pMALcE4 vector)
T1 sequence (O00519 30-579 limits assumed): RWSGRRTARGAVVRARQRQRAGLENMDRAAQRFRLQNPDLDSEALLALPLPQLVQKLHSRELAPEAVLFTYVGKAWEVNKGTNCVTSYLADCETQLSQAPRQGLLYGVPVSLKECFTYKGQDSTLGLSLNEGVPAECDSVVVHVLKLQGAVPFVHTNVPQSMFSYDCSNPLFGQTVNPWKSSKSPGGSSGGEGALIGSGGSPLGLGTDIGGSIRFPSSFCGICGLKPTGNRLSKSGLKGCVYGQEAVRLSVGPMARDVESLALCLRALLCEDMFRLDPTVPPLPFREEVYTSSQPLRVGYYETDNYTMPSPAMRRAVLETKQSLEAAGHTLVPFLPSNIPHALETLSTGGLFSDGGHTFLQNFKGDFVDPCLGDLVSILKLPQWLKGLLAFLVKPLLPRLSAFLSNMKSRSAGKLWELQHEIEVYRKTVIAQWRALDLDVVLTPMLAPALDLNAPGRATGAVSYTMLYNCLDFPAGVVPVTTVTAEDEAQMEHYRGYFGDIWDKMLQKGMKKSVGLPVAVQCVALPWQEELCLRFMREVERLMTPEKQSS
Summary of the method: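 MBP-fused ΔTM human FAAH from E. coli, pre-incubated 15 min at 25 °C with compound in 50 mM HEPES, 1 mM EDTA, 0.1% BSA, pH 7.4 (DMSO below 8%). Substrate AAMCA 20 μM (2×Km); fluorescence (ex 360/em 460) at 3 h gave % inhibition vs uninhibited control, triplicate, IC50 fitted.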

[2] = target: T2, ΔTM rat FAAH (Rattus norvegicus, UniProt P97612); assay: Fluorescent assay protocol for ΔTM rat FAAH (AAMCA substrate); conditions: 15 min preincubation, read-out: IC50 rFAAH
T2 construct: Preparation of Transmembrane Domain-Deleted Rat FAAH (ΔTM rFAAH); made in house; host or cells: E. coli
T2 sequence (P97612 30-579 limits assumed): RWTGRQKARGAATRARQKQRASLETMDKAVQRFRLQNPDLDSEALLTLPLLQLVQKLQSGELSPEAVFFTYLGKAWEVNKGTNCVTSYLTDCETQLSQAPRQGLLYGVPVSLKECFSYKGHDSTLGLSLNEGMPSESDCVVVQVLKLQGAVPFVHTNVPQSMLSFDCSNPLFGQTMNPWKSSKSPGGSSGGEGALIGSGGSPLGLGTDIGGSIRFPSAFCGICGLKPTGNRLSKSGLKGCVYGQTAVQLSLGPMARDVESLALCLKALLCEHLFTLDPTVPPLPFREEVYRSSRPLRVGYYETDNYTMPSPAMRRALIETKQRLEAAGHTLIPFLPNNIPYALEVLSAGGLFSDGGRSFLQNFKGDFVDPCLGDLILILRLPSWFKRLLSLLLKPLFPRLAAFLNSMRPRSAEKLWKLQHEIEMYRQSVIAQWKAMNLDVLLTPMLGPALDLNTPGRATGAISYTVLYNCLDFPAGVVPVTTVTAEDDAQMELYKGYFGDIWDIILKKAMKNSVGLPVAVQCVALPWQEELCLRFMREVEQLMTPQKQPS
Summary of the method: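 ΔTM rat FAAH (15 μg) was pre-incubated 15 min at 25° C with compound (screening at 1, 10 and 100 μM), then reacted with the fluorigenic substrate AAMCA. Percent inhibition came from fluorescence at 3 h (linear kinetics) relative to no-inhibitor controls, in triplicate.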

[3] = target: T3, Human MAGL (hMAGL) (Homo sapiens, UniProt Q99685); assay: Fluorescent assay protocol for hMAGL (AHMMCE substrate); conditions: recombinant human MAGL, AHMMCE substrate, 15 min preincubation; read-out: IC50 hMAGL
T3 construct: hexahistidine; made in house; host or cells: E. coli
T3 sequence (Q99685 1-303): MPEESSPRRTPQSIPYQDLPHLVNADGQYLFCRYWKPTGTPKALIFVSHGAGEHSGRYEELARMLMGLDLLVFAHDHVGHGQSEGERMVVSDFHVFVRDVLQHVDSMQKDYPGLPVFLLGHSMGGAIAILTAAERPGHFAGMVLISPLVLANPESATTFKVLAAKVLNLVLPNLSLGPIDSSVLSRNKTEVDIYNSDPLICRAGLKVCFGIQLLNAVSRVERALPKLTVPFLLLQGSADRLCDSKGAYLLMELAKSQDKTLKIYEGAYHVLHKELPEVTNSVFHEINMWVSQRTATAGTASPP
Summary of the method: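 Hydrolysis of AHMMCE by human MAGL was monitored at 25°C for 120 min, with fluorescence at 360/460 nm recorded every 15 min and converted to 4-methylcoumarin using external standards. IC50 values were derived from triplicate wells at each inhibitor concentration.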

[4] = target: T4, Rat MAGL (rMAGL) (Rattus norvegicus, UniProt Q8R431); assay: Fluorescent assay protocol for rMAGL; conditions: recombinant rat MAGL, procedure as for hMAGL; read-out: IC50 rMAGL
T4 construct: made in house; host or cells: E. coli
T4 sequence (Q8R431 1-303): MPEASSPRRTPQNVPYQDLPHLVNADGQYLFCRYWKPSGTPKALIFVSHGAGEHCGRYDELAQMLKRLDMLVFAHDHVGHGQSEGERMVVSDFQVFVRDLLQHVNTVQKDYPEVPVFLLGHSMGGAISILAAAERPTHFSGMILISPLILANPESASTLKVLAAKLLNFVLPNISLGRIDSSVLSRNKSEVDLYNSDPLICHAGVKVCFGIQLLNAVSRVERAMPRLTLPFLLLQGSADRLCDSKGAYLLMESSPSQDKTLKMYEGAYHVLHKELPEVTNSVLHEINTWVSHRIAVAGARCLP
Summary of the method: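 Rat MAGL run as for the human enzyme: AHMMCE substrate hydrolysis to fluorescent coumarin followed at 25° C. for 120 min, read every 15 min at 360/460 nm.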

IC50 [1] | IC50 [2] | IC50 [3] | IC50 [4] | Structure (SMILES)
10 to 100 nM | 10 to 100 nM | 10 to 100 nM | 10 to 100 nM | O=C(N1CC(OCc2ccc(Br)cc2)C1)n1cnc2ccccc21 [Example 87, (1H-Benzo[d]imidazol-1-yl)(3-(4-Bromobenzyloxy)azetidin-1-yl)methanone]
10 to 100 nM | 10 to 100 nM | > 1000 nM | > 1000 nM | N#Cc1cccc(-c2cccc(NC(=O)N3CCN(Cc4cccc(-c5ccccc5)c4)CC3)c2)c1 [Example 17, 4-([1,1′-biphenyl]-3-ylmethyl)-N-(3′-cyano-[1,1′-biphenyl]-3-yl)piperazine-1-carboxamide]
10 to 100 nM | 10 to 100 nM | > 1000 nM | 10 to 100 nM | Cc1ccc(C#N)cc1OC(=O)N1CCC(S(=O)(=O)c2ccc(Br)cc2)CC1 [Example 61, 5-Cyano-2-methylphenyl 4-(4-bromophenylsulfonyl)piperidine-1-carboxylate]
110 to 1000 nM | 110 to 1000 nM | > 1000 nM | > 1000 nM | N#Cc1cccc(-c2cccc(NC(=O)N3CCC4(CC3)CC(=O)c3ccccc3O4)c2)c1 [Example 20, N-(3′-cyano-[1,1′-biphenyl]-3-yl)-4-oxospiro[chromane-2,4′-piperidine]-1′-carboxamide]
> 1000 nM | > 1000 nM | > 1000 nM | > 1000 nM | N#Cc1cccc(-c2cccc(NC(=O)N3CCC(c4ccccc4)CC3)c2)c1 [Example 15, N-(3′-cyano-[1,1′-biphenyl]-3-yl)-4-phenylpiperidine-1-carboxamide]
> 1000 nM | > 1000 nM | > 1000 nM | > 1000 nM | N#Cc1cccc(-c2cccc(NC(=O)N3C[C@@H]4C[C@H]3CN4Cc3ccc4ccccc4n3)c2)c1 [Example 93, (1S,4S)—N-(3′-cyano-[1,1′-biphenyl]-3-yl)-5-(quinolin-2-ylmethyl)-2,5-diazabicyclo[2.2.1]heptane-2-carboxamide]
10 to 100 nM | 110 to 1000 nM | > 1000 nM | > 1000 nM | COC(=O)c1cccc(OC(=O)N2CCC(=C(c3ccccc3)c3ccccc3)CC2)c1 [Example 48, 3-(methoxycarbonyl)phenyl 4-(diphenylmethylene)piperidine-1-carboxylate]
> 1000 nM | > 1000 nM | > 1000 nM | > 1000 nM | O=C(Nc1cccc(Oc2ccccc2)c1)N1CCN(Cc2ccc3ccccc3n2)CC1 [Example 14, N-(3-phenoxyphenyl)-4-(quinolin-2-ylmethyl)piperazine-1-carboxamide]
10 to 100 nM | 10 to 100 nM | 10 to 100 nM | 10 to 100 nM | O=C(N1CC(N2CCC(c3ccccc3)CC2)C1)n1cccn1 [Example 89, (3-(4-Phenylpiperidin-1-yl)azetidin-1-yl)(1H-pyrazol-1-yl)methanone]
10 to 100 nM | 10 to 100 nM | > 1000 nM | > 1000 nM | O=C(N1CC(OCc2ccc(Br)cc2)C1)n1cnc(-c2ccccc2)c1 [Example 86, (3-(4-Bromobenzyloxy)azetidin-1-yl)(4-phenyl-1H-imidazol-1-yl)methanone]
10 to 100 nM | 10 to 100 nM | > 1000 nM | > 1000 nM | O=C(N1C[C@@H]2C[C@H]1CN2Cc1cccc(-c2ccccc2)c1)n1cnc(Br)c1 [Example 100, ((1S,4S)-5-([1,1′-biphenyl]-3-ylmethyl)-2,5-diazabicyclo[2.2.1]heptan-2-yl)(4-bromo-1H-imidazol-1-yl)methanone]
110 to 1000 nM | 10 to 100 nM | > 1000 nM | > 1000 nM | O=C(N1C[C@@H]2C[C@H]1CN2Cc1cccc(-c2ccccc2)c1)n1cnc(-c2ccccc2)c1 [Example 99, ((1S,4S)-5-([1,1′-biphenyl]-3-ylmethyl)-2,5-diazabicyclo[2.2.1]heptan-2-yl)(4-phenyl-1H-imidazol-1-yl)methanone]
110 to 1000 nM | 10 to 100 nM | > 1000 nM | > 1000 nM | NC(=O)c1cccc(-c2cccc(NC(=O)N3CCN(Cc4cccc(Oc5ccccc5)c4)CC3)c2)c1 [Example 18, N-(3′-carbamoyl-[1,1′-biphenyl]-3-yl)-4-(3-phenoxybenzyl)piperazine-1-carboxamide]
110 to 1000 nM | 110 to 1000 nM | > 1000 nM | > 1000 nM | O=C(Nc1cccnc1)N1CC(OCc2ccc(Br)cc2)C1 [Example 82, 3-(4-Bromobenzyloxy)-N-(pyridin-3-yl)azetidine-1-carboxamide]
> 1000 nM | > 1000 nM | > 1000 nM | > 1000 nM | NC(=O)c1cccc(-c2cccc(NC(=O)N3C[C@@H]4C[C@H]3CN4Cc3ccc4ccccc4n3)c2)c1 [Example 92, (1S,4S)—N-(3′-carbamoyl-[1,1′-biphenyl]-3-yl)-5-(quinolin-2-ylmethyl)-2,5-diazabicyclo[2.2.1]heptane-2-carboxamide]
110 to 1000 nM | 110 to 1000 nM | > 1000 nM | > 1000 nM | N#Cc1cccc(-c2cccc(NC(=O)N3C[C@@H]4C[C@H]3CN4Cc3cccc(-c4ccccc4)c3)c2)c1 [Example 94, (1S,4S)-5-([1,1′-biphenyl]-3-ylmethyl)-N-(3′-cyano-[1,1′-biphenyl]-3-yl)-2,5-diazabicyclo[2.2.1]heptane-2-carboxamide]
> 1000 nM | > 1000 nM | 110 to 1000 nM | 110 to 1000 nM | Cc1ccc(S(=O)(=O)N2CCN(C(=O)Oc3c(F)cccc3F)CC2)cc1 [Example 65, 2,6-difluorophenyl 4-tosylpiperazine-1-carboxylate]

Structure (SMILES) | IC50 [1] | IC50 [2] | IC50 [3] | IC50 [4]
CC(c1ccccc1)N1CCN(C(=O)Oc2cccc(C#N)c2)CC1 (stereo not shown) [Example 36, 3-cyanophenyl 4-(1-phenylethyl)piperazine-1-carboxylate] | 10 to 100 nM | 10 to 100 nM | > 1000 nM | > 1000 nM
O=C(Oc1cccc(N2CCS(=O)(=O)CC2)c1)N1CCN(Cc2cccc(Oc3ccccc3)c2)CC1 [Example 71, 3-(1,1-dioxidothiomorpholino)phenyl 4-(3-phenoxybenzyl)piperazine-1-carboxylate] | 110 to 1000 nM | 110 to 1000 nM | 10 to 100 nM | 10 to 100 nM
